Assay results published in ChEMBL document CHEMBL1128812, “Synthesis and porcine pancreatic elastase inhibitory evaluation of 6-(sulfonyl)oxy-and 6-chloropenicillanate sulfone esters and 3-(acyloxy)methyl-6-chloropenam sulfones” (Bioorg Med Chem Lett, 1995).
Values joined by “and” are separate entries in the source; they are usually repeats but may differ in a detail not shown here. Equal entries are not always repeated.

Target: T1, Chymotrypsin-like elastase family member 2A (Sus scrofa) (UniProt P08419)
T1 sequence (whole entry): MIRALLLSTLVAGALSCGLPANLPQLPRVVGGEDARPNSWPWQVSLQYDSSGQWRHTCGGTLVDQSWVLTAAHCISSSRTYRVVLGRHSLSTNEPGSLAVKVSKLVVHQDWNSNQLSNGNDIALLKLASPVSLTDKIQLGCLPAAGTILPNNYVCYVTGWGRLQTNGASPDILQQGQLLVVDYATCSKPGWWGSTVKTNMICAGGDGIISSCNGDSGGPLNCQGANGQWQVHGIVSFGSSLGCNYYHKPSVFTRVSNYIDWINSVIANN
Experiment: Compound was tested in vitro for its ability to inhibit Pancreatic elastase catalyzed hydrolysis of substrate with 10 min pre-incubation

inhibition: 44% and 40%
Compound: COC(=O)[C@@H]1N2C(=O)[C@@H](Cl)[C@H]2S(=O)(=O)C1(C)C
